Reference: the kinase profiling compilation of Christmann-Franck et al. (2016)

Tests used:
Assay in all cases: KINOMEscan competition binding
[1] = molecular target: ADCK3 (human) (UniProt Q8NI60)
[2] = molecular target: AKT3 (human) (UniProt Q9Y243)
[3] = molecular target: BMPR1B (human) (UniProt O00238)
[4] = molecular target: CAMK1G (human) (UniProt Q96NX5)
[5] = molecular target: CAMK2B (human) (UniProt Q13554)
[6] = molecular target: CAMK4 (human) (UniProt Q16566)
[7] = molecular target: CAMKK2 (human) (UniProt Q96RR4)
[8] = molecular target: CDC42BPA (human) (UniProt Q5VT25)
[9] = molecular target: CDK13 (human) (UniProt Q14004)
[10] = molecular target: CHEK2 (human) (UniProt O96017)
[11] = tested on: EGFR (human), P00533 [G719C]
[12] = molecular target: EPHB4 (human) (UniProt P54760)
[13] = molecular target: FGFR2 (human) (UniProt P21802)
[14] = molecular target: LIMK1 (human) (UniProt P53667)
[15] = molecular target: MAP3K12 (human) (UniProt Q12852)
[16] = molecular target: MAP3K4 (human) (UniProt Q9Y6R4)
[17] = molecular target: MAPK12 (human) (UniProt P53778)
[18] = molecular target: MAPK8 (human) (UniProt P45983)
Sequence of MAPK8 (human) (P45983 whole entry, looked up): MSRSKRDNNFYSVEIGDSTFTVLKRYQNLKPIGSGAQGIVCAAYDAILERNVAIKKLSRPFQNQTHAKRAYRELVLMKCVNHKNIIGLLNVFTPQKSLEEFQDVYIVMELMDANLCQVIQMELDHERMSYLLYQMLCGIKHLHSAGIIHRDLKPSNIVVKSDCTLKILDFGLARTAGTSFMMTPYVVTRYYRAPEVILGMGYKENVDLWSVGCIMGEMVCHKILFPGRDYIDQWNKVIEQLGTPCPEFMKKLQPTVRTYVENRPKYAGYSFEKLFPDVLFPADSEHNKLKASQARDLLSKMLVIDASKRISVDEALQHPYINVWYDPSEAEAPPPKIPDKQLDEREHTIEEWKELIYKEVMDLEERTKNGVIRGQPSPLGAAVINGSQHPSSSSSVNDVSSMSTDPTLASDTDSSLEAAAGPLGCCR

[19] = molecular target: MARK1 (human) (UniProt Q9P0L2)
[20] = molecular target: MARK3 (human) (UniProt P27448)
[21] = molecular target: MLTK (human) (UniProt Q9NYL2)
[22] = molecular target: NIM1 (human) (UniProt Q8IY84)
[23] = molecular target: NTRK2 (human) (UniProt Q16620)
[24] = molecular target: PHKG2 (human) (UniProt P15735)
[25] = molecular target: PIK3C2B (human) (UniProt O00750)
[26] = tested on: PIK3CA (human), P42336 [E542K]
Sequence of PIK3CA (human), P42336 [E542K] (P42336 whole entry E542K, looked up): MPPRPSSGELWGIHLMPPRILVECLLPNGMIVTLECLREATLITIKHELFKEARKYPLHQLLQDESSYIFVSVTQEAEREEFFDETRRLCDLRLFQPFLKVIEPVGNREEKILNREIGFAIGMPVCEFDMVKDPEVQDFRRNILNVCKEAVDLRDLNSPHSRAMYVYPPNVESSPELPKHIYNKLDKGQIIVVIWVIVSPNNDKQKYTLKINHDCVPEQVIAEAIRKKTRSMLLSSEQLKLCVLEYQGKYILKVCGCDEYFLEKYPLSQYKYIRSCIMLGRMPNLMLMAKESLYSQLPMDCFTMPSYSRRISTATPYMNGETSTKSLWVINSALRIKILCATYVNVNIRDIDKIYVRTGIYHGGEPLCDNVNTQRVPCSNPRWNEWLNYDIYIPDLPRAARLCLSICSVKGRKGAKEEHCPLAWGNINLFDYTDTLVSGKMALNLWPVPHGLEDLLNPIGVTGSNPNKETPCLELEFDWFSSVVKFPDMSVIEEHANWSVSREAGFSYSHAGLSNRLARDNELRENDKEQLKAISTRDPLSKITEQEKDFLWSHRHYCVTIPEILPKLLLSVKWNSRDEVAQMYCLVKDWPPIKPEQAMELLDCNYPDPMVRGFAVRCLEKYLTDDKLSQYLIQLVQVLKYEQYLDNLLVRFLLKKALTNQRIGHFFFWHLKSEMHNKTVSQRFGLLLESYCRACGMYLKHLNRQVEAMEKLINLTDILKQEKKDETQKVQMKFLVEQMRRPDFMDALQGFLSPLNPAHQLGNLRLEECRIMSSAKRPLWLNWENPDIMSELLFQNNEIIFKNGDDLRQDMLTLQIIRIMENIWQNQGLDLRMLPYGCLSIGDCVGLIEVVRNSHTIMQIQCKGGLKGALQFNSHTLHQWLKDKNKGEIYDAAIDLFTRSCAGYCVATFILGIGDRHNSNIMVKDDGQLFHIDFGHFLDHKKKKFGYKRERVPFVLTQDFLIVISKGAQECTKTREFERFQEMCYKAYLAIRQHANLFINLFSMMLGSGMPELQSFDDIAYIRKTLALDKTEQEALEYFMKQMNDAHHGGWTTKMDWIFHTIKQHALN

[27] = tested on: PIK3CA (human), P42336 [I800L]
Sequence of PIK3CA (human), P42336 [I800L] (P42336 whole entry I800L, looked up): as the sequence (P42336 whole entry E542K, looked up) above, with K542E, I800L counted along it

[28] = molecular target: PLK1 (human) (UniProt P53350)
[29] = molecular target: PRKACB (human) (UniProt P22694)
[30] = molecular target: PRKCE (human) (UniProt Q02156)
[31] = molecular target: PRKCH (human) (UniProt P24723)
[32] = molecular target: RAF1 (human) (UniProt P04049)
Sequence of RAF1 (human) (P04049 whole entry, looked up): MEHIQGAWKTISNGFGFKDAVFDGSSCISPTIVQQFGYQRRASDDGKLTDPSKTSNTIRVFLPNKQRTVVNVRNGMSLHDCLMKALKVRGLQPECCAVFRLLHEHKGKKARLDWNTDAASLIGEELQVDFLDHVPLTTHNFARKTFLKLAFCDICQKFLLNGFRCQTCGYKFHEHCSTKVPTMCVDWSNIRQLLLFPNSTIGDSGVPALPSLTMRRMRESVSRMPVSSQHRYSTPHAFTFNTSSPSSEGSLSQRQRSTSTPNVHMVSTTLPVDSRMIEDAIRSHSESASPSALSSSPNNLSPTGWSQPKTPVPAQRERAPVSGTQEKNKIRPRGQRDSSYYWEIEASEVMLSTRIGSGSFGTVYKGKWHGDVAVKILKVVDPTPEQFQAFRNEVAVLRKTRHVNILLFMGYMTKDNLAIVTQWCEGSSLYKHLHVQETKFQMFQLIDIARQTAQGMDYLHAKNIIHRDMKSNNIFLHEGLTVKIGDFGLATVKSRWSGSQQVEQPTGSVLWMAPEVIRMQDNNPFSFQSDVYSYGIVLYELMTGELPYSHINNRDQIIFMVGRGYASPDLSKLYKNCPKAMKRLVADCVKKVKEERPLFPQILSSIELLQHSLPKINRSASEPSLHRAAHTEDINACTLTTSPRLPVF

[33] = tested on: RET (human), P07949 [V804L]
Sequence of RET (human), P07949 [V804L] (P07949 whole entry V804L, looked up): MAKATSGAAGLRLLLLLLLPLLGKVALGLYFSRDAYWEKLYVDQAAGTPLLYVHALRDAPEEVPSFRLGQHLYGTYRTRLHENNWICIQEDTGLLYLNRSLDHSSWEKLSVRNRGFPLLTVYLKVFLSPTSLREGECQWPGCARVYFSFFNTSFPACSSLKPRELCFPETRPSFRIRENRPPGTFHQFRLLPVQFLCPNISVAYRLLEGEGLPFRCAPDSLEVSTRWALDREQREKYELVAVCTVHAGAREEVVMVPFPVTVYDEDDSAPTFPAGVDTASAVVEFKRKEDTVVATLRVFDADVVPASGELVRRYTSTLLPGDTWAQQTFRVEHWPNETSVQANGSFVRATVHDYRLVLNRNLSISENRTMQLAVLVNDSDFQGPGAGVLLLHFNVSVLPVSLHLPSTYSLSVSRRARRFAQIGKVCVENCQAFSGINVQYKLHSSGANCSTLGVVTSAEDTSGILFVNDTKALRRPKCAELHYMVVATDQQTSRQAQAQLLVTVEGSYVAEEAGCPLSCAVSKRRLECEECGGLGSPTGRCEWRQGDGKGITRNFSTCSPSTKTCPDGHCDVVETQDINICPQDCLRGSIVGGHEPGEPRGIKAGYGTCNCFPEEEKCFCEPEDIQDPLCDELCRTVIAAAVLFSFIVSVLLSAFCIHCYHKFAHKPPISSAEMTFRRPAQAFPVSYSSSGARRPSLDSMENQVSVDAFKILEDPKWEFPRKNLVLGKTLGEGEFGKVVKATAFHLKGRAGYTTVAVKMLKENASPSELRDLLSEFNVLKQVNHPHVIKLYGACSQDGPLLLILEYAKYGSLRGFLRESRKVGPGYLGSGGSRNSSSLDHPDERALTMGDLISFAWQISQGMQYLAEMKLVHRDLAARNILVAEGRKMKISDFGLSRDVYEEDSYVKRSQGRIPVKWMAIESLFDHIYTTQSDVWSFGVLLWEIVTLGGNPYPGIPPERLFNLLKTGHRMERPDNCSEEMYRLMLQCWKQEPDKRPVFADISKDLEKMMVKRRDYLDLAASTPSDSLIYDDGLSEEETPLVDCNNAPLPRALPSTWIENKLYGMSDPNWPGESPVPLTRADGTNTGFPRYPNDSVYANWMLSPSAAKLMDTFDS

[34] = molecular target: RIOK2 (human) (UniProt Q9BVS4)
[35] = molecular target: RIOK3 (human) (UniProt O14730)
[36] = molecular target: SLK (human) (UniProt Q9H2G2)
Sequence of SLK (human) (Q9H2G2 whole entry, looked up): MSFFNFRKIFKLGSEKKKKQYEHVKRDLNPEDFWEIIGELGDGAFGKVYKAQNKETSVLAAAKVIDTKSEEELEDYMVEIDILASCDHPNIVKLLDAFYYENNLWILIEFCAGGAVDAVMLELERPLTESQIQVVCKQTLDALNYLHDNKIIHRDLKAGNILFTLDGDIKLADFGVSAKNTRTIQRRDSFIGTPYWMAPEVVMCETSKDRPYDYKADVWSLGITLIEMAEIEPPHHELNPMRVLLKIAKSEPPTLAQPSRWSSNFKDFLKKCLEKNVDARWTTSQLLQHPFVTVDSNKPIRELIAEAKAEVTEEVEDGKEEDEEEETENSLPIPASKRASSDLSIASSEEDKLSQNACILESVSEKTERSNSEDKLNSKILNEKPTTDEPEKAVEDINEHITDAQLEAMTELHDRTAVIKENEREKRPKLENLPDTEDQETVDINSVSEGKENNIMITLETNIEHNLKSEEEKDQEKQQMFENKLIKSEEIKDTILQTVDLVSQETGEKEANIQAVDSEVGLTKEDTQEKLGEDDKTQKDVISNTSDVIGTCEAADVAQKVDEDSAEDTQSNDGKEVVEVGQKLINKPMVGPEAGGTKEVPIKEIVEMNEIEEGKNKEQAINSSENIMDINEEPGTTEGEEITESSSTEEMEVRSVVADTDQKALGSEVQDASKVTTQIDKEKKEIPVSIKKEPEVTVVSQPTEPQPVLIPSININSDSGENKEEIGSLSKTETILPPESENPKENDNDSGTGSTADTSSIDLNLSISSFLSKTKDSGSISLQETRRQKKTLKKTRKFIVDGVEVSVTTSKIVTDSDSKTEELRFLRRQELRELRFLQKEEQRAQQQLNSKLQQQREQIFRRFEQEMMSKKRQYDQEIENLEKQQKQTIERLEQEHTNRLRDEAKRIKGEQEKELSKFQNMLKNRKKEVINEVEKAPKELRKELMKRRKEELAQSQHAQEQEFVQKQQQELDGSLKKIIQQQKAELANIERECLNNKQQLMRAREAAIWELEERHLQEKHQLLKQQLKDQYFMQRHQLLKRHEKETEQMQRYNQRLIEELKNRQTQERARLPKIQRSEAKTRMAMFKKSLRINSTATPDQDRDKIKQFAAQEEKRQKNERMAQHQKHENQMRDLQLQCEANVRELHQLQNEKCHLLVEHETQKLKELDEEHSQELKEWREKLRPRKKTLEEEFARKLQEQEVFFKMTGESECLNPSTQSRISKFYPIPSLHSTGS

[37] = molecular target: SRPK2 (human) (UniProt P78362)
[38] = molecular target: STK10 (human) (UniProt O94804)
[39] = molecular target: STK11 (human) (UniProt Q15831)
[40] = molecular target: STK3 (human) (UniProt Q13188)
[41] = molecular target: TAOK2 (human) (UniProt Q9UL54)
[42] = molecular target: TBK1 (human) (UniProt Q9UHD2)

Sequence of CAMK1G (human) (Q96NX5 whole entry, looked up): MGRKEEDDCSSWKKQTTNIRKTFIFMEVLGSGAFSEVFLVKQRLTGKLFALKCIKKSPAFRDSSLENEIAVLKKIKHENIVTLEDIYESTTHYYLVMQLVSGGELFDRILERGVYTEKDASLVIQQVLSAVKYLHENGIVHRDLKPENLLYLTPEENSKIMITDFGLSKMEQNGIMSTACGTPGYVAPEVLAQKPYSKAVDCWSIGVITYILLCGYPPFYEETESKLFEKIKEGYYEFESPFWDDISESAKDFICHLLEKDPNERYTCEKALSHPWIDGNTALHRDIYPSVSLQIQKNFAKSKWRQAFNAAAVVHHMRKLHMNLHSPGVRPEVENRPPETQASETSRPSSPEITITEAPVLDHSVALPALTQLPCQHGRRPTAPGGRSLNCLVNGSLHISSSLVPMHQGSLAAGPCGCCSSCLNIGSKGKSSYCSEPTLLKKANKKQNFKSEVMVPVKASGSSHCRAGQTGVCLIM

Structure (SMILES): Cc1ccc(NC(=O)c2ccc(NC(=O)/C=C/CN(C)C)cc2)cc1Nc1nccc(-c2cccnc2)n1
- kinase still bound, per cent of control ([1]; compound 10.0 µM): 76%
- kinase still bound, per cent of control ([2]; compound 10.0 µM): 100%
- kinase still bound, per cent of control ([3]; compound 10.0 µM): 79%
- kinase still bound, per cent of control ([4]; compound 10.0 µM): 79%
- kinase still bound, per cent of control ([5]; compound 10.0 µM): 100%
- kinase still bound, per cent of control ([6]; compound 10.0 µM): 100%
- kinase still bound, per cent of control ([7]; compound 10.0 µM): 56%
- kinase still bound, per cent of control ([8]; compound 10.0 µM): 83%
- kinase still bound, per cent of control ([9]; compound 10.0 µM): 65%
- kinase still bound, per cent of control ([10]; compound 10.0 µM): 94%
- kinase still bound, per cent of control ([11]; compound 10.0 µM): 45%
- kinase still bound, per cent of control ([12]; compound 10.0 µM): 100%
- kinase still bound, per cent of control ([13]; compound 10.0 µM): 100%
- kinase still bound, per cent of control ([14]; compound 10.0 µM): 85%
- kinase still bound, per cent of control ([15]; compound 10.0 µM): 94%
- kinase still bound, per cent of control ([16]; compound 10.0 µM): 100%
- kinase still bound, per cent of control ([17]; compound 10.0 µM): 94%
- Kd [18]: 290 nM
- kinase still bound, per cent of control ([18]; compound 10.0 µM): 0%
- kinase still bound, per cent of control ([19]; compound 10.0 µM): 93%
- kinase still bound, per cent of control ([20]; compound 10.0 µM): 100%
- kinase still bound, per cent of control ([21]; compound 10.0 µM): 78%
- kinase still bound, per cent of control ([22]; compound 10.0 µM): 92%
- kinase still bound, per cent of control ([23]; compound 10.0 µM): 67%
- kinase still bound, per cent of control ([24]; compound 10.0 µM): 86%
- kinase still bound, per cent of control ([25]; compound 10.0 µM): 93%
- kinase still bound, per cent of control ([26]; compound 10.0 µM): 100%
- kinase still bound, per cent of control ([27]; compound 10.0 µM): 88%
- kinase still bound, per cent of control ([28]; compound 10.0 µM): 83%
- kinase still bound, per cent of control ([29]; compound 10.0 µM): 100%
- kinase still bound, per cent of control ([30]; compound 10.0 µM): 100%
- kinase still bound, per cent of control ([31]; compound 10.0 µM): 87%
- kinase still bound, per cent of control ([32]; compound 10.0 µM): 55%
- kinase still bound, per cent of control ([33]; compound 10.0 µM): 85%
- kinase still bound, per cent of control ([34]; compound 10.0 µM): 3.2%
- kinase still bound, per cent of control ([35]; compound 10.0 µM): 47%
- kinase still bound, per cent of control ([36]; compound 10.0 µM): 100%
- kinase still bound, per cent of control ([37]; compound 10.0 µM): 100%
- kinase still bound, per cent of control ([38]; compound 10.0 µM): 89%
- kinase still bound, per cent of control ([39]; compound 10.0 µM): 92%
- kinase still bound, per cent of control ([40]; compound 10.0 µM): 100%
- kinase still bound, per cent of control ([41]; compound 10.0 µM): 61%
- kinase still bound, per cent of control ([42]; compound 10.0 µM): 64%

Structure (SMILES): CN(C)C/C=C/C(=O)Nc1cccc(C(=O)Nc2ccc(Nc3nccc(/C(C#N)=C4\Nc5ccccc5S4)n3)cc2)c1
- kinase still bound, per cent of control ([1]; compound 1.0 µM): 82%
- kinase still bound, per cent of control ([2]; compound 1.0 µM): 100%
- kinase still bound, per cent of control ([3]; compound 1.0 µM): 100%
- kinase still bound, per cent of control ([4]; compound 1.0 µM): 100%
- kinase still bound, per cent of control ([5]; compound 1.0 µM): 100%
- kinase still bound, per cent of control ([6]; compound 1.0 µM): 100%
- kinase still bound, per cent of control ([7]; compound 1.0 µM): 100%
- kinase still bound, per cent of control ([8]; compound 1.0 µM): 98%
- kinase still bound, per cent of control ([9]; compound 1.0 µM): 100%
- kinase still bound, per cent of control ([10]; compound 1.0 µM): 100%
- kinase still bound, per cent of control ([11]; compound 1.0 µM): 86%
- kinase still bound, per cent of control ([12]; compound 1.0 µM): 100%
- kinase still bound, per cent of control ([13]; compound 1.0 µM): 100%
- kinase still bound, per cent of control ([14]; compound 1.0 µM): 100%
- kinase still bound, per cent of control ([15]; compound 1.0 µM): 100%
- kinase still bound, per cent of control ([16]; compound 1.0 µM): 100%
- kinase still bound, per cent of control ([17]; compound 1.0 µM): 100%
- kinase still bound, per cent of control ([18]; compound 1.0 µM): 0%
- kinase still bound, per cent of control ([19]; compound 1.0 µM): 100%
- kinase still bound, per cent of control ([20]; compound 1.0 µM): 100%
- kinase still bound, per cent of control ([21]; compound 1.0 µM): 98%
- kinase still bound, per cent of control ([22]; compound 1.0 µM): 86%
- kinase still bound, per cent of control ([23]; compound 1.0 µM): 100%
- kinase still bound, per cent of control ([24]; compound 1.0 µM): 100%
- kinase still bound, per cent of control ([25]; compound 1.0 µM): 96%
- kinase still bound, per cent of control ([26]; compound 1.0 µM): 100%
- kinase still bound, per cent of control ([27]; compound 1.0 µM): 100%
- kinase still bound, per cent of control ([28]; compound 1.0 µM): 96%
- kinase still bound, per cent of control ([29]; compound 1.0 µM): 100%
- kinase still bound, per cent of control ([30]; compound 1.0 µM): 100%
- kinase still bound, per cent of control ([31]; compound 1.0 µM): 100%
- kinase still bound, per cent of control ([32]; compound 1.0 µM): 91%
- kinase still bound, per cent of control ([33]; compound 1.0 µM): 100%
- kinase still bound, per cent of control ([34]; compound 1.0 µM): 18%
- kinase still bound, per cent of control ([35]; compound 1.0 µM): 100%
- kinase still bound, per cent of control ([36]; compound 1.0 µM): 8.6%
- kinase still bound, per cent of control ([37]; compound 1.0 µM): 100%
- kinase still bound, per cent of control ([38]; compound 1.0 µM): 86%
- kinase still bound, per cent of control ([39]; compound 1.0 µM): 90%
- kinase still bound, per cent of control ([40]; compound 1.0 µM): 91%
- kinase still bound, per cent of control ([41]; compound 1.0 µM): 100%
- kinase still bound, per cent of control ([42]; compound 1.0 µM): 100%
